Patent US10555987B2, “GHRH agonists for the treatment of ischemic disorders” (UNIVERSITY OF MIAMI, priority 2012, dated 2020)
Non-standard residues stand in square brackets, D forms with d. Residues, ends and D or L forms follow the SMILES beside them. *: point of attachment. Desaminotyrosyl = O=C(CCc1ccc(O)cc1)*; hArg = N=C(N)NCCCC[C@H](N)C(=O)O; Agmatine = N=C(N)NCCCCN*; Nle = CCCC[C@H](N)C(=O)O; Orn = NCCC[C@H](N)C(=O)O; Abu = CC[C@H](N)C(=O)O; Aoc = NCCCCCCCC(=O)O

Biological target: T1, GHRH receptor (Homo sapiens, UniProt Q02643)
T1 sequence (Q02643 23-423): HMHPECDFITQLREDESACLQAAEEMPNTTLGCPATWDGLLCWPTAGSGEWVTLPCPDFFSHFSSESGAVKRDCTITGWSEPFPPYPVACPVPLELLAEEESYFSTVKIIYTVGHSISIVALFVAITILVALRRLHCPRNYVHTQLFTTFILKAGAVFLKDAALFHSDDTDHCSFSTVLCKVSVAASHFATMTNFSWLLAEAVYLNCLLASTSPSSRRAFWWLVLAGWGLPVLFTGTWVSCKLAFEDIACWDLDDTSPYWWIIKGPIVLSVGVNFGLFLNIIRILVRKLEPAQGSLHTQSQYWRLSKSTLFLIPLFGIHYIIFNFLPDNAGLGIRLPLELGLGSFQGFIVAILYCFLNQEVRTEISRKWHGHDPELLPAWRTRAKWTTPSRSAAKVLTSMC
Assay: GHRH receptor binding, competition with 125I-labeled [His1,Nle27]hGHRH(1-32)NH2, human pituitary membrane homogenates (Table 6)
Parameters: Normal human pituitaries were purchased from the National Hormone and Peptide Program; tissue National Hormone and Peptide Program (A.F. Parlow, Harbor-UCLA Medical Center, Torrance, Calif.); host or cells: normal human pituitary, membrane fraction
Conditions: for Relative affinity (Binding potency) vs GHRH: GHRH(1-29) = 1, Table 6; for Relative affinity (Binding potency) vs JI-38: JI-38 = 1, Table 6
Source text: Normal human pituitaries were purchased from the National Hormone and Peptide Program (A.F. Parlow, Los Angeles, County Harbor-UCLA Medical Center, Torrance, Calif.).

Row | Relative affinity (Binding potency) vs GHRH | Relative affinity (Binding potency) vs JI-38 | SMILES
1 | 84.5 | 27.8 | CCCC[C@H](NC(=O)[C@@H](NC(=O)[C@H](CC(=O)O)NC(=O)[C@H](CCC(N)=O)NC(=O)[C@H](CC(C)C)NC(=O)[C@H](CC(C)C)NC(=O)[C@H](CCCN)NC(=O)[C@H](CCCNC(=N)N)NC(=O)[C@H](C)NC(=O)[C@H](CO)NC(=O)[C@H](CC(C)C)NC(=O)[C@H](CCC(N)=O)NC(=O)[C@H](CC)NC(=O)[C@H](CC(C)C)NC(=O)[C@@H](NC(=O)[C@H](CCCN)NC(=O)[C@H](CCCNC(=N)N)NC(=O)[C@H](Cc1ccc(O)cc1)NC(=O)[C@H](CO)NC(=O)[C@@H](NC(=O)[C@@H](NC(=O)[C@H](Cc1ccccc1)NC(=O)[C@@H](NC(=O)[C@H](C)NC(=O)[C@H](CC(=O)O)NC(=O)[C@@H](C)NC(=O)CCc1ccc(O)cc1)[C@@H](C)CC)[C@@H](C)O)[C@@H](C)O)C(C)C)[C@@H](C)CC)C(=O)N[C@@H](CC(=O)O)C(=O)N[C@@H](CCCNC(=N)N)C(=O)N[C@@H](CCCCNC(=N)N)C(N)=O [Peptide P-23254, [Dat^1, D-Ala^2, Thr^8, Orn^12, Abu^15, Orn^21, Nle^27, Asp^28, Har^30]hGHRH(1-30)NH2] (Desaminotyrosyl-[dA]DAIFTTSYR[Orn]VL[Abu]QLSAR[Orn]LLQDI[Nle]DR[hArg]-NH2)
2 | 148.0 | 48.7 | CCCC[C@H](NC(=O)[C@@H](NC(=O)[C@H](CC(=O)O)NC(=O)[C@H](CCC(N)=O)NC(=O)[C@H](CC(C)C)NC(=O)[C@H](CC(C)C)NC(=O)[C@H](CCCN)NC(=O)[C@H](CCCNC(=N)N)NC(=O)[C@H](C)NC(=O)[C@H](CO)NC(=O)[C@H](CC(C)C)NC(=O)[C@H](CCC(N)=O)NC(=O)[C@H](CC)NC(=O)[C@H](CC(C)C)NC(=O)[C@@H](NC(=O)[C@H](CCCN)NC(=O)[C@H](CCCNC(=N)N)NC(=O)[C@H](Cc1ccc(O)cc1)NC(=O)[C@H](CO)NC(=O)[C@H](C)NC(=O)[C@@H](NC(=O)[C@H](Cc1ccccc1)NC(=O)[C@@H](NC(=O)[C@H](C)NC(=O)[C@H](CC(=O)O)NC(=O)[C@@H](C)NC(=O)CCc1ccc(O)cc1)[C@@H](C)CC)[C@@H](C)O)C(C)C)[C@@H](C)CC)C(=O)N[C@@H](CC(=O)O)C(=O)N[C@@H](CCCNC(=N)N)C(=O)N[C@@H](CCCCNC(=N)N)C(N)=O [Peptide P-23256, [Dat^1, D-Ala^2, Ala^8, Orn^12, Abu^15, Orn^21, Nle^27, Asp^28, Har^30]hGHRH(1-30)NH2] (Desaminotyrosyl-[dA]DAIFTASYR[Orn]VL[Abu]QLSAR[Orn]LLQDI[Nle]DR[hArg]-NH2)

More lines, now with the values behind:

Row | SMILES | Relative affinity (Binding potency) vs GHRH | Relative affinity (Binding potency) vs JI-38
3 | CCCC[C@H](NC(=O)[C@@H](NC(=O)[C@H](CC(=O)O)NC(=O)[C@H](CCC(N)=O)NC(=O)[C@H](CC(C)C)NC(=O)[C@H](CC(C)C)NC(=O)[C@H](CCCN)NC(=O)[C@H](CCCNC(=N)N)NC(=O)[C@H](C)NC(=O)[C@H](CO)NC(=O)[C@H](CC(C)C)NC(=O)[C@H](CCC(N)=O)NC(=O)[C@H](CC)NC(=O)[C@H](CC(C)C)NC(=O)[C@@H](NC(=O)[C@H](CCCN)NC(=O)[C@H](CCCNC(=N)N)NC(=O)[C@H](Cc1ccc(O)cc1)NC(=O)[C@H](CO)NC(=O)[C@@H](NC(=O)[C@@H](NC(=O)[C@H](Cc1ccccc1)NC(=O)[C@@H](NC(=O)[C@H](C)NC(=O)[C@H](CC(=O)O)NC(=O)[C@H](C)NC(=O)CCc1ccc(O)cc1)[C@@H](C)CC)[C@@H](C)O)[C@@H](C)O)C(C)C)[C@@H](C)CC)C(=O)N[C@@H](CC(=O)O)C(=O)NCCCCNC(=N)N [JI-36, reference compound] (Desaminotyrosyl-ADAIFTTSYR[Orn]VL[Abu]QLSAR[Orn]LLQDI[Nle]D-Agmatine; N-terminus and C-terminus assumed) | 3.25 | –
4 | CCCC[C@H](NC(=O)[C@@H](NC(=O)[C@H](CC(=O)O)NC(=O)[C@H](CCC(N)=O)NC(=O)[C@H](CC(C)C)NC(=O)[C@H](CC(C)C)NC(=O)[C@H](CCCN)NC(=O)[C@H](CCCNC(=N)N)NC(=O)[C@H](C)NC(=O)[C@H](CO)NC(=O)[C@H](CC(C)C)NC(=O)[C@H](CCC(N)=O)NC(=O)[C@H](CC)NC(=O)[C@H](CC(C)C)NC(=O)[C@@H](NC(=O)[C@H](CCCN)NC(=O)[C@H](CCCNC(=N)N)NC(=O)[C@H](Cc1ccc(O)cc1)NC(=O)[C@H](CO)NC(=O)[C@H](CCC(N)=O)NC(=O)[C@@H](NC(=O)[C@H](Cc1ccccc1)NC(=O)[C@@H](NC(=O)[C@H](C)NC(=O)[C@H](CC(=O)O)NC(=O)[C@@H](C)NC(=O)CCc1ccc(O)cc1)[C@@H](C)CC)[C@@H](C)O)C(C)C)[C@@H](C)CC)C(=O)N[C@@H](CC(=O)O)C(=O)N[C@@H](CCCNC(=N)N)C(=O)NCCCCCCCC(N)=O [Peptide P-21304, [Dat^1, D-Ala^2, Gln^8, Orn^12, Abu^15, Orn^21, Nle^27, Asp^28, Amc^30]hGHRH(1-30)NH2] (Desaminotyrosyl-[dA]DAIFTQSYR[Orn]VL[Abu]QLSAR[Orn]LLQDI[Nle]DR[Aoc]-NH2) | 74.0 | 24.4
5 | CCCC[C@H](NC(=O)[C@@H](NC(=O)[C@H](CC(=O)O)NC(=O)[C@H](CCC(N)=O)NC(=O)[C@H](CC(C)C)NC(=O)[C@H](CC(C)C)NC(=O)[C@H](CCCN)NC(=O)[C@H](CCCNC(=N)N)NC(=O)[C@H](C)NC(=O)[C@H](CO)NC(=O)[C@H](CC(C)C)NC(=O)[C@H](CCC(N)=O)NC(=O)[C@H](CC)NC(=O)[C@H](CC(C)C)NC(=O)[C@@H](NC(=O)[C@H](CCCN)NC(=O)[C@H](CCCNC(=N)N)NC(=O)[C@H](Cc1ccc(O)cc1)NC(=O)[C@H](CO)NC(=O)[C@H](CC(N)=O)NC(=O)[C@@H](NC(=O)[C@H](Cc1ccccc1)NC(=O)[C@@H](NC(=O)[C@H](C)NC(=O)[C@H](CC(=O)O)NC(=O)[C@@H](C)NC(=O)CCc1ccc(O)cc1)[C@@H](C)CC)[C@@H](C)O)C(C)C)[C@@H](C)CC)C(=O)N[C@@H](CC(=O)O)C(=O)N[C@@H](CCCNC(=N)N)C(=O)N[C@@H](CCCCNC(=N)N)C(N)=O [Peptide P-23252, [Dat^1-D-Ala^2, Orn^12, Abu^15, Orn^21, Nle^27, Asp^28, Har^30]hGHRH(1-30)NH^2] (Desaminotyrosyl-[dA]DAIFTNSYR[Orn]VL[Abu]QLSAR[Orn]LLQDI[Nle]DR[hArg]-NH2) | 42.3 | 13.9
